These results are taken from PubChem BioAssay AID248 (DTP/NCI, 2004).

The subject of the assay is L1210 leukemia ip in BDF1 mice, survival T/C. The experiment in a line: NCI In Vivo Anticancer Drug Screen. Data for tumor model L1210 Leukemia (intraperitoneal) in B6D2F1 (BDF1) mice. The note with it: endpoint: mean survival time, higher = longer survival. The method, boiled down:
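Transplantable tumor model; survival measured in treated vs vehicle control mice. Value = treated/control.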

Setting [1] is: dose: 100.0 mg/kg/injection, schedule: Q01DX009 (ip), vehicle: Klucel (hydroxypropylcellulose) (HPC).
[2] abbreviates: dose: 200.0 mg/kg/injection, schedule: Q01DX009 (ip), vehicle: Klucel (hydroxypropylcellulose) (HPC).
[3] abbreviates: dose: 400.0 mg/kg/injection, schedule: Q01DX009 (ip), vehicle: Klucel (hydroxypropylcellulose) (HPC).
Setting [4] is: dose: 100.0 mg/kg/injection, schedule: Q01DX001 (ip), vehicle: saline.
Where [5] appears, read: dose: 200.0 mg/kg/injection, schedule: Q01DX001 (ip), vehicle: saline.
The mark [6] stands for this setting: dose: 400.0 mg/kg/injection, schedule: Q01DX001 (ip), vehicle: saline.
The mark [7] stands for this setting: dose: 100.0 mg/kg/injection, schedule: Q01DX009 (ip), vehicle: saline with Tween-80.
Setting [8] is: dose: 200.0 mg/kg/injection, schedule: Q01DX009 (ip), vehicle: saline with Tween-80.
[9] abbreviates: dose: 400.0 mg/kg/injection, schedule: Q01DX009 (ip), vehicle: saline with Tween-80.
[10] abbreviates: dose: 100.0 mg/kg/injection, schedule: Q04DX002 (ip), vehicle: saline with Tween-80.
[11] abbreviates: dose: 200.0 mg/kg/injection, schedule: Q04DX002 (ip), vehicle: saline with Tween-80.
[12] abbreviates: dose: 400.0 mg/kg/injection, schedule: Q04DX002 (ip), vehicle: saline with Tween-80.
Setting [13] is: dose: 100.0 mg/kg/injection, schedule: Q04DX003 (ip), vehicle: Klucel (hydroxypropylcellulose) (HPC).
Setting [14] is: dose: 200.0 mg/kg/injection, schedule: Q04DX003 (ip), vehicle: Klucel (hydroxypropylcellulose) (HPC).
The mark [15] stands for this setting: dose: 400.0 mg/kg/injection, schedule: Q04DX003 (ip), vehicle: Klucel (hydroxypropylcellulose) (HPC).
The mark [16] stands for this setting: dose: 100.0 mg/kg/injection, schedule: Q01DX009 (ip), vehicle: saline.

Values joined by “and” are separate entries in the source; they are usually repeats but may differ in a detail not shown here. Equal entries are not always repeated. Toxic doses and inconclusive results are not listed.

Consider `Cc1cc(OCCOC(=O)Nc2ccccc2F)ccc1Cl`, for which the T/C under setting [1] was 107 % of control, the T/C under setting [2] was 102 % of control and the T/C under setting [3] was 112 % of control.
Consider `COc1cccc(N=Nc2ccc(N(C)C)cc2)c1`, for which the T/C under setting [4] was 95 % of control, the T/C under setting [5] was 95 % of control and the T/C under setting [6] was 103 % of control.
As for `Cc1cccc(/C(=C/c2ccc([N+](=O)[O-])cc2)C(=O)Nc2ccc(S(=O)(=O)F)cc2)c1`, the T/C under setting [7] is 96 % of control, the T/C under setting [8] was 97 % of control and the T/C under setting [9] is 96 % of control.
In the case of `C[C@]12CC[C@@H](O)C[C@H]1CC[C@@H]1[C@@H]2CC[C@]2(C)C(=O)CC[C@@H]12`, the T/C reads like this: (dose: 100.0 mg/kg/injection, schedule: Q01DX001 (sc), vehicle: steriod suspending solution) 101 % of control; under setting [10], 100 % of control; (dose: 200.0 mg/kg/injection, schedule: Q01DX001 (sc), vehicle: steriod suspending solution) 95 % of control; under setting [11], 96 % of control; (dose: 400.0 mg/kg/injection, schedule: Q01DX001 (sc), vehicle: steriod suspending solution) 95 % of control; under setting [12], 100 % of control.
As to `CN(C)c1n[nH]c(N=[N+]=[N-])n1`, the T/C is, setting by setting: under setting [10], 104 % of control; under setting [11], 90 % of control; under setting [12], 104 % of control.
Consider `COc1ccc(C(O)c2c(CN(C)C)c3ccccc3n2C)cc1` (configuration not stated), for which the T/C (dose: 100.0 mg/kg/injection, schedule: Q04DX002 (ip), vehicle: other) is 106 % of control.
`CCOC(=O)C(C)(Br)C(Br)c1ccc([N+](=O)[O-])cc1` (configuration not stated): the T/C is, setting by setting: under setting [1], 96 % of control; under setting [13], 101 % of control; under setting [2], 93 % of control; under setting [14], 101 % of control; under setting [3], 98 % of control; under setting [15], 108 % of control.
Consider `CCCCC1C(=O)N(c2ccccc2)N(c2ccccc2)C1=O`, for which the T/C was 97 % of control (dose: 17.0 mg/kg/injection, schedule: Q01DX Z (ip), vehicle: water); 100 % of control (dose: 40.0 mg/kg/injection, schedule: Q01DX Z (ip), vehicle: water); 103 % of control (dose: 60.0 mg/kg/injection, schedule: Q01DX Z (ip), vehicle: water); 100 % of control (dose: 90.0 mg/kg/injection, schedule: Q01DX Z (ip), vehicle: water); 114 % of control (dose: 135.0 mg/kg/injection, schedule: Q01DX Z (ip), vehicle: water).
As for `CCCCS/C=C1/CC2(C)C(CCC3C4CCC(O)C4(C)CCC32)CC1=O` (configuration not stated), the T/C was 89 % of control under setting [13] and 91 % of control under setting [14].
Regarding `O=C(O)C(CSC(c1ccccc1)(c1ccccc1)c1ccccc1)N=Cc1ccccc1O` (configuration not stated), the T/C runs as follows: (dose: 267.0 mg/kg/injection, schedule: Q01DX001 (ip), vehicle: saline) 154 % of control; (dose: 600.0 mg/kg/injection, schedule: Q01DX001 (ip), vehicle: saline) 154 % of control.
Consider `CCCCCCCCC(O)CC` (configuration not stated), for which the T/C runs as follows: under setting [1], 93 % of control and 96 % of control; under setting [13], 103 % of control; under setting [2], 96 % of control; under setting [14], 97 % of control; under setting [3], 92 % of control and 105 % of control; under setting [15], 97 % of control.
As for `O=S(=O)(CC(Cl)c1ccc(Cl)cc1)c1ccccc1` (configuration not stated), the T/C reads like this: under setting [4], 112 % of control; under setting [5], 114 % of control; under setting [6], 109 % of control.
`CCCCc1ccc(-n2c(C)c(COC(=O)NC)c(COC(=O)NC)c2C)cc1`: the T/C is 122 % of control (dose: 3.12 mg/kg/injection, schedule: Q01DX009 (ip), vehicle: Klucel (hydroxypropylcellulose) (HPC)) and 122 % of control (dose: 6.25 mg/kg/injection, schedule: Q01DX009 (ip), vehicle: Klucel (hydroxypropylcellulose) (HPC)).
In the case of `CCCCCCCCCCCCCCCCN(C(C)C)S(=O)(=O)c1ccc(Cl)c(N)c1`, the T/C by setting is: under setting [16], 89 % of control; under setting [13], 98 % of control; (dose: 200.0 mg/kg/injection, schedule: Q01DX009 (ip), vehicle: saline) 89 % of control; under setting [14], 96 % of control; (dose: 400.0 mg/kg/injection, schedule: Q01DX009 (ip), vehicle: saline) 102 % of control; under setting [15], 89 % of control.
As to `CCCCCCC(/C=C/C=C/c1ccccc1)=N\O`, the T/C is, setting by setting: under setting [13], 96 % of control; under setting [2], 91 % of control; under setting [14], 90 % of control; under setting [3], 91 % of control; under setting [15], 98 % of control.
Take `CC(C)C#C/C=C/C(C)C`: the T/C was 95 % of control (dose: 50.0 mg/kg/injection, schedule: Q01DX009 (ip), vehicle: saline with Tween-80); 95 % of control under setting [7]; 103 % of control under setting [8].
With `CN(C)C(N1CC1)N1CC1`, the T/C is 112 % of control (dose: 10.0 mg/kg/injection, schedule: Q04DX002 (ip), vehicle: saline); 108 % of control (dose: 20.0 mg/kg/injection, schedule: Q04DX002 (ip), vehicle: saline); 97 % of control (dose: 40.0 mg/kg/injection, schedule: Q04DX002 (ip), vehicle: saline).
In the case of `O=C(COc1ccc(Cl)cc1Cl)Oc1c(Cl)c(Cl)c(Cl)c(Cl)c1Cl`, the T/C was 88 % of control under setting [7]; 91 % of control (dose: 100.0 mg/kg/injection, schedule: Q04DX003 (ip), vehicle: saline with Tween-80); 88 % of control under setting [8]; 92 % of control (dose: 200.0 mg/kg/injection, schedule: Q04DX003 (ip), vehicle: saline with Tween-80); 92 % of control under setting [9]; 86 % of control (dose: 400.0 mg/kg/injection, schedule: Q04DX003 (ip), vehicle: saline with Tween-80).
With `CCC(C)C(CCCN1CCCCC1)(CNC(=O)CN(CC)CC)c1cccc2ccccc12` (configuration not stated), the T/C was 96 % of control (dose: 25.0 mg/kg/injection, schedule: Q01DX009 (ip), vehicle: saline); 100 % of control (dose: 50.0 mg/kg/injection, schedule: Q01DX009 (ip), vehicle: saline); 103 % of control under setting [16]; 103 % of control (dose: 100.0 mg/kg/injection, schedule: Q04DX003 (ip), vehicle: saline).
